Measurements taken from patent US10377731B2, “Compositions and methods for cancer treatment” (Boston Biomedical, Inc., priority 2007, dated 2019).
Read-outs that look alike come from different tables or passages of the source.

Assays:
[1] = test system: Paca2 human pancreatic cancer cells; assay: Colony formation, Paca2 cells, single drugs and combinations; format: cell-based
Procedure: (§1) Paca2 human pancreatic cancer cells, A549 human lung cancer cells, and HepG2 human liver cancer cells (American Type Culture Collection) were cultured in Dulbecco's modified Eagle's medium containing 10% fetal bovine serum, 100 units/mL penicillin, 100 μg/mL streptomycin, and 2 mM L-glutamine. […] Erlotinib was from American Custom Chemicals (San Diego, Calif.). Gemcitabine was from Eli Lilly (Indianapolis, Ind.) in an aqueous 20 mM stock solution. Sorafenib was Mass.). Unless otherwise noted all compounds were solubilized in DMSO at 10 mM and aliquoted at −20° C. Exponentially growing Paca2 pancreatic cancer cells were seeded at 1,000 cells per well in 6-well plates and allowed to attach for 24 hours. Increasing concentrations of individual drugs and those in combination were then added to the media for another 24 hours. After 24 hours exposure, the drug was removed and fresh media was added for the next 10-14 days, allowing for colony formation. Cells were fixed and stained with GIEMSA (Gibco BRL). […] Results are an average of duplicate experiments. Alternatively, MTT assays were performed 72 hours post-treatment in A549 and HepG2 cells.

Stat3 [2] = assay: Stat3-luciferase (Stat3-Luc) reporter assay, OSM-stimulated HeLa cells; format: cell-based; conditions: for IC50: Homo sapiens, HeLa cells, compound 30 minutes before 25 ng/ml oncostatin M, read 6 hours later, read-out: IC50 in Stat3-Luc assays
Procedure: Luciferase Reporter Assay: HeLa Cells were co-transfected with Stat3-luciferase (Stat3-Luc) reporter vector (Panomics, Fremont, Calif.) and Renilla luciferase (Promega, Madison, Wis.) using Lipofectamine 2000 as described by the manufacturer (Invitrogen). Following transfection, cells were maintained in medium containing 0.5% FBS for 24 hours. Cells were then treated with the indicated compound for 30 minutes prior to the addition of 25 ng/ml oncostatin M (OSM) (R&D Systems, Minneapolis, Minn.) to the medium. 6 hours following OSM addition, cells were harvested and levels of firefly and renilla luciferase were measured using the Dual-Glo Luciferase Assay System as described by the manufacturer (Promega).
Inhibition of Stat3 transcription activity. Compounds were tested for their ability to inhibit Stat3 transcription activation activity in cells using a Stat3-luciferase (Stat3-luc) reporter construct. Cells transfected with Stat3-luc were cultured in reduced serum medium prior to addition of indicated compound for 30 minutes. Cells were then stimulated with 25 ng/ml oncostatin M (OSM) for 6 hours followed by detection of Stat3-luc reporter activity. […] AG490, a known inhibitor of the Jak-Stat pathway, was included as a positive control for Stat3 inhibition.

Stat3 [3] = assay: Stat3 DNA binding assay (EMSA), HeLa nuclear extract; format: biochemical; conditions: HeLa nuclear extract with constitutively activated Stat3
Procedure: STAT3 DNA Binding Assay: Electrophoretic mobility shift assay (EMSA) was performed as described by the manufacturer (Li-Cor Biosciences, Lincoln, Nebr.). Briefly, nuclear extracts were made from HeLa cells using the NucBuster Protein Extraction Kit as described by the manufacturer (EMD Biosciences, San Diego, Calif.). 5 μg of nuclear extract was pre-incubated with the indicated dose of indicated compound for 30 minutes prior to a 15-minute incubation with the IR700-labeled consensus Stat3 oligonucleotide. Samples were then electrophoresed on a polyacrylamide gel and directly scanned using the Odyssey infrared imaging system (Li-Cor Biosciences). For the enzyme-linked immunosorbent assay (ELISA), 5 μg of nuclear extract was preincubated with indicated concentration of indicated compound for 30 minutes prior to the addition of biotinylated oligo (5′-Biotin-[…]-3′ SEQ ID NO. 1). Stat3-DNA complexes were then captured on streptavidin coated 96 well plates (Pierce, Rockford, Ill.). Bound complexes were then incubated with Stat3 polyclonal antibody (Santa Cruz Biotechnology, Santa Cruz, Calif.) followed by anti-rabbit HRP conjugated secondary antibody (GE Healthcare, Pittsburgh, Pa.). Bound antibody was then visualized by addition of TMB substrate (Pierce) and absorbance measured at 450 nm.
Inhibition of Stat3 DNA-binding activity. Nuclear extracts from HeLa cells, which contain constitutively activated Stat3 as detected by phosphorylation at the tyrosine 705 residue, were used to perform Stat3 EMSAs to monitor Stat3 DNA binding activity. Nuclear extracts were incubated with indicated compound prior to incubation with IR700-labeled Stat3 consensus oligonucleotide. Binding of Stat3 to the oligonucleotide was monitored by gel electrophoresis and detection using a LiCor Odyssey infrared scanner.

CD44high CSCs (FaDu) = assay: Sphere assay (CSC spherogenesis); format: cell-based, human; conditions: applied at approximately ten times their IC50 concentrations for cell death
Procedure: CD44^high cells were isolated by FACS according to the methods described in Ponti et al, with slight modification. Briefly, after trypsinization and recovery of cells for 30 minutes at 37° C. in growth media, cells were pelleted at 400×g and were resuspended in PBS with 2% FBS and 1 mM EDTA at 1×10^6 cells/mL. Cells were then incubated on ice with a 1:100 dilution of CD44-FITC (BD Biosicences, San Diego, Calif.) for 15 minutes. Alternatively, CD24-PE (BD Bioscences, San Diego, Calif.) (1:100) was utilized for negative selection. After washing three times, cells were resuspended at 2×10^6/mL and passed through a […] mesh before sorting
Sphere assay: A reliable method of measuring the self-renewal capacity of cell population if the ability to be cultured as spheres in the absence of serum or attachment. CD44^high FaDu or Hoechst side population cancer stem cells were cultured in ultra low attachment plates in cancer stem cell media (DMEM/F12, B27 Neurobasal supplement, 20 ng/ml EGF, 10 ng/ml FGF, 4 μg/ml insulin, and 0.4% BSA) to allow spheres formation. Typically, sphere formation was evaluated by microscopy after 10-14 days in culture and spheres with >50 cells were scored.
Identification of compounds that inhibit CSC spherogenesis in vitro. One of the hallmarks of cancer stem cells is their ability to self-renew. A reliable method of measuring the self-renewal capacity of cell populations is the ability to be cultured as spheres in the absence of serum or attachment. To compare the ability of compound 401 to other targeted and chemotherapeutic agents, FACS-isolated CD44^high CSCs were grown as spheres for 72 hours before being challenged with a panel of therapeutic agents. […] Tarceva, Sutent, and Gleevec were added at approximately three times their reported therapeutic concentrations.

[4] = test system: HepG2 human liver cancer cells; assay: 72 hour MTT, HepG2 cells, single drugs and combinations; format: cell-based
Procedure: (§2) Cell Viability Determination: For 3-(4,5 dimethylthiazol-2-yl)-2,5-diphenyltetrazolium (MTT) (Sigma-Aldrich, St. Louis, Mo.) analysis, cells were plated in 96 well plates at 10,000 cells per well. 24 hours after plating, compound was added to cells at indicated doses. […] following compound addition, MTT was added to each well (0.5 mg/ml, final concentration) and plates were incubated for an additional 2 hours at 37° C. Medium was then aspirated and the formazan product was solubilized in 100 μl of isopropyl alcohol. The absorbance of each well was measured at 570 nm using a microplate reader.
as §1

[5] = test system: A549 human lung cancer cells; assay: 72 hour MTT, A549 cells, single drugs and combinations; format: cell-based; conditions: for inhibition at 2.5 µM: read-out: X (% Inhibition)
Procedure: as §2, §1

[6] = 72 hour MTT A549 cells, X alone 2.5 μM

Q: How did the “X (% Inhibition)” value ([1]; X alone 16 μM) turn out when N.N.O=C([O-])C1(C(=O)[O-])CCC1.[Pt+2] [Carboplatin] was run?
A: Its value is 43%.

Q: CC(O)c1cc2c(o1)C(=O)c1ccccc1C2=O (stereo not shown) [Compound 301, 2-(1-hydroxyethyl)-naphtho[2,3-b]furan-4,9-dione] was tested. Which IC50 (Stat3 [2]) did it give?
A: Its IC50 is roughly 2000 nM.

Q: What does the source list for CC(=O)c1cc2c(o1)C(=O)c1cc(Cl)ccc1C2=O [Compound 416, 2-Acetyl-7-Chloro-naphtho[2,3-b]furan-4,9-dione]?
A: Inhibition of Stat3 DNA-binding activity (in words) (Stat3 [3]): can inhibit; IC50 (Stat3 [2]): ~750 nM

Q: CC(=O)c1cc2c(o1)C(=O)c1cc(F)ccc1C2=O [Compound 418, 2-Acetyl-7-Fluoro-naphtho[2,3-b]furan-4,9-dione] was tested. Which “Inhibition of Stat3 DNA-binding activity (in words)” value (Stat3 [3]) did it give?
A: The value was “can inhibit”.

Q: What about the IC50 (Stat3 [2]) of the same compound?
A: The IC50 was roughly 750 nM.

Q: With O=C(c1ccccc1)c1cc2cc3ccccc3cc2s1 [Compound 1001, reference compound] as the compound, how does the “Inhibition of OSM-stimulated Stat3 reporter activity (in words)” value (Stat3 [2]; at a much higher concentration (FIG. 4, right panel)) read?
A: Its value is “did not inhibit”.

Q: Which results are given for CC(=O)O[C@@]12CO[C@@H]1C[C@H](O)[C@@]1(C)C(=O)[C@H](O)C3=C(C)[C@@H](OC(=O)[C@H](O)[C@@H](NC(=O)OC(C)(C)C)c4ccccc4)C[C@@](O)([C@@H](OC(=O)c4ccccc4)[C@H]21)C3(C)C [Docetaxel, reference compound]?
A: inhibition at 0.00033 µM ([1]; Homo sapiens, PaCa-2, X alone 0.33 nM): 48%; Effect on CSC sphere proliferation (CD44high CSCs (FaDu)): resistant

Q: Which results are given for COc1cccc2c1C(=O)c1c(O)c3c(c(O)c1C2=O)C[C@@](O)(C(=O)CO)C[C@@H]3O[C@H]1C[C@H](N)[C@H](O)[C@H](C)O1 [Doxorubicin]?
A: inhibition at 0.016 µM ([1]; Homo sapiens, PaCa-2, X alone 16 nM): 89%; Effect on CSC sphere proliferation (CD44high CSCs (FaDu)): resistant; inhibition at 0.0125 µM ([4]; X alone 12.5 nM): 23%; inhibition at 0.0125 µM ([5]; 72 hour MTT A549 cells, X alone 12.5 nM): 29%

Q: For C#Cc1cccc(Nc2ncnc3cc(OCCOC)c(OCCOC)cc23)c1 [Erlotinib], which inhibition at 16 µM ([1]; Homo sapiens, PaCa-2, X alone 16 μM) is on record?
A: Its inhibition at 16 µM is 26%.

Q: And the inhibition at 2.5 µM ([5]; A549, 72 h)?
A: Its inhibition at 2.5 µM is 43%.

Q: How did the inhibition at 0.66 µM ([1]; Homo sapiens, PaCa-2, X alone 660 nM) turn out when COc1cc([C@@H]2c3cc4c(cc3[C@@H](O[C@@H]3O[C@@H]5CO[C@@H](C)O[C@H]5[C@H](O)[C@H]3O)[C@H]3COC(=O)[C@H]23)OCO4)cc(OC)c1O [Etoposide] was run?
A: The inhibition at 0.66 µM was 58%.

Q: With Nc1ccn([C@@H]2O[C@H](CO)[C@@H](O)C2(F)F)c(=O)n1 [Gemcitabine] as the compound, how does the inhibition at 0.033 µM ([1]; Homo sapiens, PaCa-2, X alone 33 nM) read?
A: The inhibition at 0.033 µM was 36%.

Q: CS(=O)(=O)CCNCc1ccc(-c2ccc3ncnc(Nc4ccc(OCc5cccc(F)c5)c(Cl)c4)c3c2)o1 [Lapatinib] was tested. Which inhibition at 6.75 µM ([1]; Homo sapiens, PaCa-2, X alone 6.75 μM) did it give?
A: The inhibition at 6.75 µM was 27%.

Q: And the inhibition at 2.5 µM [5, 6]?
A: Its inhibition at 2.5 µM is 66%.

Q: How did the inhibition at 2 µM ([1]; Homo sapiens, PaCa-2, X alone 2 μM) turn out when CNC(=O)c1cc(Oc2ccc(NC(=O)Nc3ccc(Cl)c(C(F)(F)F)c3)cc2)ccn1 [Sorafenib] was run?
A: Its inhibition at 2 µM is 66%.

Q: What about the inhibition at 0.625 µM ([4]; X alone 625 nM) of the same compound?
A: The inhibition at 0.625 µM was 34%.

Q: What about the inhibition at 2.5 µM ([4]; X alone 2.5 μM) of the same compound?
A: The inhibition at 2.5 µM was 51%.

Q: And the inhibition at 2.5 µM [5, 6]?
A: The inhibition at 2.5 µM was 40%.

Q: How did the inhibition at 12 µM ([1]; Homo sapiens, PaCa-2, X alone 12 μM) turn out when CCN(CC)CCNC(=O)c1c(C)[nH]c(/C=C2\C(=O)Nc3ccc(F)cc32)c1C [Sunitinib] was run?
A: The inhibition at 12 µM was 52%.

Q: What about the inhibition at 2.5 µM [5, 6] of the same compound?
A: Its inhibition at 2.5 µM is 75%.
